Experimental data as given in US12157730B2, “Heteroaryl derivative, method for producing same, and pharmaceutical composition comprising same as effective component” (VORONOI INC., priority 2019, dated 2024).

What follows are compounds tested against T1, Ba/F3 cell EGFR Exon20 ins NPH (Homo sapiens, UniProt P00533, INS773NPH) (assay: Ba/F3 cell proliferation suppression, EGFR Exon20 ins NPH). Settings: GI50 class; Ba/F3 cell line with NPH inserted at Exon20 of EGFR; 72 hours.
T1 construct: expressed in transfected cells; host or cells: Ba/F3
Assay type: cell-based
Summary of the method: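 After 72 h compound exposure (twelve 3-fold steps, 0.3 nM–50 um final), live cells were measured by CellTiter-Glo luminescence and growth expressed as % of control to derive GI50. Cells were seeded at 3000–5000 per well a day earlier; Ba/F3 medium contained IL-3; three repeats.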

Ba/F3 (NPH) Activity, B (50 nM ≤ GI50 < 500 nM):
C=CC(=O)Nc1cc(Nc2cc(N3OCC[C@@H]3c3cccc(OC)c3)ncn2)c(OC)cc1N1CCC(N2CCN(C)CC2)CC1 [Example 40, N-(4-methoxy-5-((6-((R)-3-(3-methoxyphenyl)isoxazolidine-2-yl)pyrimidine-4-yl)amino)-2-(4-(4-methylpiperazine-1-yl)piperidine-1-yl)phenyl) acrylamide]
C=CC(=O)Nc1cc(Nc2cc(N3OCC[C@@H]3c3ccc4ccccc4c3)ncn2)c(OC)cc1N1CCN(CC)CC1 [compound 514, N-(2-(4-ethylpiperazine-1-yl)-4-methoxy-5-((6-((R)-3-(naphthalene-2-yl)isoxazolidine-2-yl)pyrimidine-4-yl)amino)phenyl)acrylamide]
C=CC(=O)Nc1cc(Nc2cc(N3OCC[C@@H]3c3cc(F)cc(Cl)c3)ncn2)c(OC)cc1N1CC(N2CCN(C3CC3)CC2)C1 [compound 587, N-(5-((6-((R)-3-(3-chloro-5-fluorophenyl)isoxazolidine-2-yl)pyrimidine-4-yl)amino)-2-(3-(4-cyclopropylpiperazine-1-yl)azetidine-1-yl)-4-methoxyphenyl) acrylamide]
C=CC(=O)Nc1cc(Nc2cc(N3OCC[C@@H]3c3cccc(Cl)c3Cl)ncn2)c(OC)cc1N1CCN(CCN(C)C)CC1 [compound 566, N-(5-((6-((R)-3-(2,3-dichlorophenyl)isoxazolidine-2-yl)pyrimidine-4-yl)amino)-2-(4-(2-(dimethylamino)ethyl)piperazine-1-yl)-4-methoxyphenyl) acrylamide]

Ba/F3 (NPH) Activity, A (GI50 < 50 nM):
C=CC(=O)Nc1cc(Nc2cc(N3OCC[C@@H]3c3ccc(Cl)c(F)c3)ncn2)c(OC)cc1N1CCC(N2C[C@H]3C[C@@H]2CN3CC)CC1 [compound 859, N-(5-((6-((R)-3-(4-chloro-3-fluorophenyl)isoxazolidine-2-yl)pyrimidine-4-yl)amino)-2-(4-((1R,4R)-5-ethyl-2,5-diazabicyclo [2.2.1]heptane-2-yl)piperidine-1-yl)-4-methoxyphenyl) acrylamide]
C=CC(=O)Nc1cc(Nc2cc(N3OCC[C@@H]3Cc3ccccc3)ncn2)c(OC)cc1N1CCN(C2COC2)CC1 [compound 958, N-(5-((6-((S)-3-benzylisoxazolidine-2-yl)pyrimidine-4-yl)amino)-4-methoxy-2-(4-(oxetane-3-yl)piperazine-1-yl)phenyl)acrylamide]
C=CC(=O)Nc1cc(Nc2cc(N3OCC[C@@H]3c3cccc(Cl)c3Cl)ncn2)c(OC)cc1N1CCN(C(C)=O)CC1 [compound 519, N-(2-(4-acetylpiperazine-1-yl)-5-((6-((R)-3-(2,3-dichlorophenyl)isoxazolidine-2-yl)pyrimidine-4-yl)amino)-4-methoxyphenyl) acrylamide]
C=CC(=O)Nc1cc(Nc2cc(N3OCC[C@@H]3Cc3cccc(Cl)c3Cl)ncn2)c(OC)cc1N1CCC(N2CCN(C3CC3)[C@H](C)C2)CC1 [compound 980, N-(2-(4-((R)-4-cyclopropyl-3-methylpiperazine-1-yl)piperidine-1-yl)-5-((6-((S)-3-(2,3-dichlorobenzyl)isoxazolidine-2-yl)pyrimidine-4-yl)amino)-4-methoxyphenyl) acrylamide]
C=CC(=O)Nc1cc(Nc2cc(N3OCC[C@@H]3c3ccc(F)cc3F)ncn2)c(OC)cc1N1CCC(N2C[C@H]3C[C@@H]2CN3C)CC1 [compound 473, N-(5-((6-((R)-3-(2,4-difluorophenyl)isoxazolidine-2-yl)pyrimidine-4-yl)amino)-4-methoxy-2-(4-((1R,4R)-5-methyl-2,5-diazabicyclo[2.2.1]heptane-2-yl)piperidine-1-yl)phenyl)acrylamide]
C=CC(=O)Nc1cc(Nc2cc(N3OCC[C@@H]3c3ccc(Cl)cc3F)ncn2)c(OC)cc1N1CCC(N2CCN(C)CC2)CC1 [compound 454, N-(5-((6-((R)-3-(4-chloro-2-fluorophenyl)isoxazolidine-2-yl)pyrimidine-4-yl)amino)-4-methoxy-2-(4-(4-methylpiperazine-1-yl)piperidine-1-yl)phenyl) acrylamide]
C=CC(=O)Nc1cc(Nc2cc(N3OCC[C@@H]3c3ccc(Cl)cc3)ncn2)c(OC)cc1N1CCC(N2C[C@H]3C[C@@H]2CO3)CC1 [compound 867, N-(2-(4-((1R,4R)-2-oxa-5-azabicyclo [2.2.1]heptane-5-yl)piperidine-1-yl)-5-((6-((R)-3-(4-chlorophenyl)isoxazolidine-2-yl)pyrimidine-4-yl)amino)-4-methoxyphenyl) acrylamide]
C=CC(=O)Nc1cc(Nc2cc(N3OCC[C@@H]3c3ccc(F)c(F)c3F)ncn2)c(OC)cc1N1CCC(N2CCN(C3CCC3)CC2)CC1 [Example 187, N-(2-(4-(4-cyclobutylpiperazine-1-yl)piperidine-1-yl)-4-methoxy-5-((6-((R)-3-(2,3,4-trifluorophenyl)isoxazolidine-2-yl)pyrimidine-4-yl)amino)phenyl)acrylamide]
C=CC(=O)Nc1cc(Nc2cc(N3OCC[C@@H]3c3cccc(Cl)c3C)ncn2)c(OC)cc1N1CC[C@@H](N(C)C)C1 [compound 586, N-(5-((6-((R)-3-(3-chloro-2-methylphenyl)isoxazolidine-2-yl)pyrimidine-4-yl)amino)-2-((R)-3-(dimethylamino)pyrolidine-1-yl)-4-methoxyphenyl) acrylamide]
C=CC(=O)Nc1cc(Nc2cc(N3OCC[C@@H]3c3ccc(Cl)c(F)c3)ncn2)c(OC)cc1N1CCN(C(C)=O)CC1 [compound 363, N-(2-(4-acetylpiperazine-1-yl)-5-((6-((R)-3-(4-chloro-3-fluorophenyl)isoxazolidine-2-yl)pyrimidine-4-yl)amino)-4-methoxyphenyl) acrylamide]
C=CC(=O)Nc1cc(Nc2cc(N3OCC[C@@H]3c3cccc(Cl)c3)ncn2)c(OC)cc1N1CCC(N2CCN(CC)CC2)CC1 [compound 412, N-(5-((6-((R)-3-(3-chlorophenyl)isoxazolidine-2-yl)pyrimidine-4-yl)amino)-2-(4-(4-ethylpiperazine-1-yl)piperidine-1-yl)-4-methoxyphenyl) acrylamide]
C=CC(=O)Nc1cc(Nc2cc(N3OCC[C@@H]3c3ccc(Cl)c(F)c3)ncn2)c(OC)cc1N1CCC(N2C[C@@H](C)O[C@@H](C)C2)CC1 [compound 709, N-(5-((6-((R)-3-(4-chloro-3-fluorophenyl)isoxazolidine-2-yl)pyrimidine-4-yl)amino)-2-(4-((2S,6R)-2,6-dimethylmorpholino)piperidine-1-yl)-4-methoxyphenyl) acrylamide]
C=CC(=O)Nc1cc(Nc2cc(N3OCC[C@@H]3c3ccc(Cl)cc3F)ncn2)c(OC)cc1N1CCC(N2CCN(C(C)C)CC2)CC1 [compound 408, N-(5-((6-((R)-3-(4-chloro-2-fluorophenyl)isoxazolidine-2-yl)pyrimidine-4-yl)amino)-2-(4-(4-isopropylpiperazine-1-yl)piperidine-1-yl)-4-methoxyphenyl) acrylamide]
C=CC(=O)Nc1cc(Nc2cc(N3OCC[C@@H]3c3c(F)ccc(F)c3F)ncn2)c(OC)cc1N(C)CCN(C)C [compound 628, N-(2-((2-(dimethylamino)ethyl) (methyl)amino)-4-methoxy-5-((6-((R)-3-(2,3,6-trifluorophenyl)isoxazolidine-2-yl)pyrimidine-4-yl)amino)phenyl)acrylamide]
C=CC(=O)Nc1cc(Nc2cc(N3OCC[C@@H]3c3cccc(Cl)c3)ncn2)c(OC)cc1N1CC[C@@H](N(C)C)C1 [compound 469, N-(5-((6-((R)-3-(3-chlorophenyl)isoxazolidine-2-yl)pyrimidine-4-yl)amino)-2-((R)-3-(dimethylamino)pyrolidine-1-yl)-4-methoxyphenyl) acrylamide]

Ba/F3 (NPH) Activity, C (500 nM ≤ GI50 < 5000 nM):
C=CC(=O)Nc1cc(Nc2cc(N3OCC[C@H]3c3c(F)cccc3F)ncn2)c(OC)cc1N1CCC(N2CC[C@H](N(C)C)C2)CC1 [compound 315, N-(5-((6-((S)-3-(2,6-difluorophenyl)isoxazolidine-2-yl)pyrimidine-4-yl)amino)-2-(4-((S)-3-(dimethylamino)pyrolidine-1-yl)piperidine-1-yl)-4-methoxyphenyl) acrylamide]
C=CC(=O)Nc1cc(Nc2cc(N3OCC[C@H]3Cc3ccccc3)ncn2)c(OC)cc1N1CCN(C2CCN(C)CC2)CC1 [compound 974, N-(5-((6-((R)-3-benzylisoxazolidine-2-yl)pyrimidine-4-yl)amino)-4-methoxy-2-(4-(1-methylpiperidine-4-yl)piperazine-1-yl)phenyl)acrylamide]
C=CC(=O)Nc1cc(Nc2cc(N3OCC[C@H]3c3c(F)cccc3F)ncn2)c(OC)cc1N1CCC(N2CC[C@@H](N(C)C)C2)CC1 [compound 314, N-(5-((6-((S)-3-(2,6-difluorophenyl)isoxazolidine-2-yl)pyrimidine-4-yl)amino)-2-(4-((R)-3-(dimethylamino)pyrolidine-1-yl)piperidine-1-yl)-4-methoxyphenyl) acrylamide]
